# Peptide text beside a SMILES is read from it.
# How the values were obtained:
# BK2 receptor [1] = molecular target: T1, BK2 receptor (Oryctolagus cuniculus, UniProt Q28642); assay: rabbit jugular vein (RJV) in vitro, antagonism of BK; assay type: cell-based; conditions: Table A; recovery after washing
# T1 construct: when administered to an intact animal; from tissue; host or cells: whole rabbit (systemic arterial blood pressure), LPS-pretreated
# T1 sequence (Q28642 1-367): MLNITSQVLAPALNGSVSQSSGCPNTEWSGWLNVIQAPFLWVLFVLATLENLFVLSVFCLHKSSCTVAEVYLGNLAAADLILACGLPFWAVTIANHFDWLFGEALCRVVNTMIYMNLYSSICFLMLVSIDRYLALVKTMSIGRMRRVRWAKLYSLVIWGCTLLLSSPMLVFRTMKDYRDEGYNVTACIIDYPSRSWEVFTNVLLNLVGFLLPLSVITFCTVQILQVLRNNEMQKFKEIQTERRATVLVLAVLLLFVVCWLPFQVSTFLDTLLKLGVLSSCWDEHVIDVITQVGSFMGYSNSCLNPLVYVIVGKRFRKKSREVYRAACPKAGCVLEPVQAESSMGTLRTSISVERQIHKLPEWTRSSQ
# [2] = test system: BK-induced vascular permeability; assay: rabbit skin vascular permeability to intradermal BK (Evans Blue); assay type: in vivo
# BK-induced hypotension = BK-induced hypotension in the anesthetized rat; assay type: in vivo; conditions: intravenous infusion 9 nmol kg^-1 min^-1; BK 4×10^-9 moles; FIG. 3
# Method: After stopping the infusion of CP-0127, it can be seen that the responses to BK returned slowly being fully recovered after approximately 20 minutes.
# Using anaesthetized rats, dose-response curves to BK were constructed and the ED50 identified (see FIG. 5a). The ED50 was then injected before and at 15 minute intervals after a single S.C. injection of CP-0127.
# BK1 receptor = molecular target: T2, BK1 receptor (Oryctolagus cuniculus, UniProt P48748); assay: rabbit aorta in vitro, reversal of des-Arg^9 -BK contraction; assay type: cell-based; conditions: Table G; negative log of molar concentration causing 50% reversal of 10^-7 M des-Arg^9 -BK contraction
# T2 construct: when administered to an intact animal; from tissue; host or cells: whole rabbit (systemic arterial blood pressure), LPS-pretreated
# T2 sequence (P48748 1-352): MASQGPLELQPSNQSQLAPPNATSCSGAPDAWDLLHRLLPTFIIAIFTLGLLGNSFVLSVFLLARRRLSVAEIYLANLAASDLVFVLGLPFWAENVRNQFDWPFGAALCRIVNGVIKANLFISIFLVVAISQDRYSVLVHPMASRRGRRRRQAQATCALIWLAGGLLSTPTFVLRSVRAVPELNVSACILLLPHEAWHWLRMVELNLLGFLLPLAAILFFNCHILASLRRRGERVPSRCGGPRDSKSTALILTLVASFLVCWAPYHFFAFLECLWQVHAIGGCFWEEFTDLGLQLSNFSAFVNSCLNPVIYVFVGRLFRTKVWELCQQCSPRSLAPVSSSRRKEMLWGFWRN
# BK2 receptor [3] = molecular target: T1, BK2 receptor; assay: blood pressure response to BK2 agonist in LPS-pretreated rabbits; assay type: in vivo, rabbit; parameters: key to OBSERVED ANTAGONIST ACTIVITY BK2: +: indicates complete blockade of the blood pressure response to the appropriate agonist; +/-: indicates partial blockade; -: indicates no observable effect at the dose indicated; conditions: rabbits given LPS (10 μg) 20 hours before
smiles,measurement,setting,value
CC(C)C[C@H](NC(=O)[C@@H](Cc1ccccc1)NC(=O)[C@H](CS)NC(=O)[C@H](Cc1ccccc1)NC(=O)CNC(=O)[C@@H]1C[C@@H](O)CN1C(=O)[C@@H]1CCCN1C(=O)[C@H](CCCNC(=N)N)NC(=O)[C@H](N)CCCNC(=N)N)C(=O)N[C@@H](CCCNC(=N)N)C(=O)O [CP-0126] (HELM PEPTIDE1{[dR].R.P.[Hyp].G.F.C.[dF].L.R}$$$$V2.0),RJV % REC,BK2 receptor [1],60%
same,inhibition of BK-induced skin vascular permeability,"[2]; co-injected intradermally with BK, FIG. 2A",more potent than CP-0127
same,inhibition of BK-induced skin vascular permeability,"[2]; pre-injected 15 or 30 minutes before BK in the same site, FIGS. 2B, 2C",significantly less effective
same,inhibition of hypotensive response to BK,BK-induced hypotension,almost totally ineffective
same,BK1 RABBIT AORTA IC50,BK1 receptor,Inactive
same,OBSERVED ANTAGONIST ACTIVITY BK2,BK2 receptor [3]; 1 μg kg^-1 min^-1,+
same,OBSERVED ANTAGONIST ACTIVITY BK2,BK2 receptor [3]; 3 μg kg^-1 min^-1,+
same,OBSERVED ANTAGONIST ACTIVITY BK2,BK2 receptor [3]; 10 μg kg^-1 min^-1,+

# Reference: patent publication US5620958A, “Bradykinin antagonists” (Coretech, Inc., priority 1994, dated 1997)
